Source: ChEMBL document CHEMBL1201862, “PubChem BioAssay data set” (2004)
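In this assay, cells in 96-well plates receive the compound at five concentrations for 48 hours. Endpoints are linearly interpolated between the surrounding concentrations. At the GI50, growth is halved.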 Calls of active or inactive are those of the source. Rule as the data show it: active = GI50 up to about 1.1 µM and inactive = higher.

Assays:
Assay in all cases: NCI-60 cell line screen, 48 h
[1] = test system: 786-0
[2] = test system: A498
[3] = test system: ACHN
[4] = test system: CAKI-1
[5] = test system: CCRF-CEM
[6] = test system: DU-145
[7] = test system: EKVX
[8] = test system: HCC 2998
[9] = test system: HCT-116
[10] = test system: HCT-15
[11] = test system: HL-60
[12] = test system: HOP-62
[13] = test system: HOP-92
[14] = test system: HT-29
[15] = test system: Hs-578T
[16] = test system: IGROV-1
[17] = test system: K562
[18] = test system: KM12
[19] = test system: LOX IMVI
[20] = test system: M14
[21] = test system: MCF7
[22] = test system: MDA-MB-231
[23] = test system: MDA-MB-435
[24] = test system: MDA-N
[25] = test system: MOLT-4
[26] = test system: NCI-H226
[27] = test system: NCI-H23
[28] = test system: NCI-H460
[29] = test system: NCI-H522
[30] = test system: NCI/ADR-RES
[31] = test system: OVCAR-3
[32] = test system: OVCAR-4
[33] = test system: OVCAR-5
[34] = test system: OVCAR-8
[35] = test system: PC-3
[36] = test system: RPMI-8226
[37] = test system: RXF 393
[38] = test system: SF-268
[39] = test system: SF-295
[40] = test system: SF-539
[41] = test system: SK-MEL-28
[42] = test system: SK-MEL-2
[43] = test system: SK-MEL-5
[44] = test system: SK-OV-3
[45] = test system: SR
[46] = test system: SW-620
[47] = test system: T47D
[48] = test system: TK-10
[49] = test system: U-251
[50] = test system: UACC-257
[51] = test system: UO-31
[52] = test system: A549
[53] = test system: COLO 205
[54] = test system: SN12C
[55] = test system: SNB-19
[56] = test system: SNB-75
[57] = test system: UACC-62
[58] = test system: BT-549

Measured: GI50

CC1=NN(c2cccc(Cl)c2)C2(SCC(=O)N2c2nc3ccccc3s2)/C1=C\c1ccccc1O (configuration not stated)
14.6 µM: [10]
inactive: [1] 16.3 µM | [2] 11 µM | [3] 15.5 µM | [4] 21.4 µM | [5] 15.1 µM | [6] 18.3 µM | [7] 30.5 µM | [8] 21.6 µM | [9] 14.9 µM | [11] 14.2 µM | [12] 20.9 µM | [13] 10.1 µM | [14] 23.4 µM | [15] 27.8 µM | [16] 17.4 µM | [17] 5.65 µM | [18] 19.7 µM | [19] 30.5 µM | [20] 21.7 µM | [21] 20 µM | [22] 20.2 µM | [23] 21.3 µM | [24] 22.3 µM | [25] 11.9 µM | [26] 34.3 µM | [27] 16 µM | [28] 31.8 µM | [29] 19.8 µM | [30] 19.7 µM | [31] 15.8 µM | [32] 21.4 µM | [33] 25.4 µM | [34] 18.1 µM | [35] 19.8 µM | [36] 11.9 µM | [37] 17 µM | [38] 22.6 µM | [39] 25.8 µM | [40] 33.5 µM | [41] 24.8 µM | [42] 17.6 µM | [43] 13.4 µM | [44] 18.4 µM | [45] 13.7 µM | [46] 16.7 µM | [47] 3.99 µM | [48] 42.4 µM | [49] 19.2 µM | [50] 31.4 µM | [51] 15.7 µM

COC(CC1(/C=C/O[Si](C(C)C)(C(C)C)C(C)C)C(=O)N(C)c2ccccc21)OC (configuration not stated)
inactive: [1] 18.4 µM | [2] > 100 µM | [52] 45.2 µM | [3] 62.5 µM | [4] > 100 µM | [5] 64.7 µM | [53] 58.9 µM | [6] > 100 µM | [7] 46 µM | [8] 64 µM | [9] 28.5 µM | [11] 51.8 µM | [12] 58.1 µM | [13] > 100 µM | [15] 15.9 µM | [17] 51.5 µM | [18] 39.4 µM | [19] 33.4 µM | [20] 94.8 µM | [21] 36.8 µM | [22] > 100 µM | [23] 76.2 µM | [24] > 100 µM | [25] 55.3 µM | [26] 24.1 µM | [27] 42.1 µM | [28] 45.9 µM | [30] 22.9 µM | [31] > 100 µM | [32] 34.5 µM | [33] > 100 µM | [34] 54.3 µM | [35] 49.3 µM | [36] 15.3 µM | [37] 59.6 µM | [38] 36.6 µM | [39] 28.6 µM | [41] > 100 µM | [42] > 100 µM | [43] 36.8 µM | [44] 35.7 µM | [54] 78.9 µM | [55] > 100 µM | [56] > 100 µM | [45] 31.6 µM | [46] > 100 µM | [47] 55.3 µM | [49] 51.9 µM | [50] 47 µM | [57] > 100 µM | [51] 68.2 µM
40.9 µM: [10]

Cc1ccccc1NC(=O)NC(Oc1ccccc1)(C(F)(F)F)C(F)(F)F
inactive: [1] > 100 µM | [2] > 100 µM | [3] > 100 µM | [58] > 100 µM | [4] 22.4 µM | [5] > 100 µM | [53] > 100 µM | [8] > 100 µM | [9] > 100 µM | [11] > 100 µM | [14] > 100 µM | [15] > 100 µM | [16] > 100 µM | [17] > 100 µM | [20] > 100 µM | [23] > 100 µM | [25] > 100 µM | [27] > 100 µM | [30] > 100 µM | [33] > 100 µM | [36] > 100 µM | [37] 73.1 µM | [38] > 100 µM | [40] > 100 µM | [41] > 100 µM | [42] > 100 µM | [44] > 100 µM | [55] > 100 µM | [56] > 100 µM | [45] > 100 µM | [47] > 100 µM | [49] > 100 µM | [50] > 100 µM | [51] > 100 µM
